Reference: ChEMBL document CHEMBL1201862, “PubChem BioAssay data set” (2004)
The source made the active and inactive calls.

Experiments:
Beta-galactosidase = Beta-galactosidase (Escherichia coli, UniProt Q8VNN2); assay: Dose response counterscreen for EBI2 assay utilizing the enzyme, b-galactosidase.; format: functional
[1] = molecular target: T1, Long-chain-fatty-acid--AMP ligase FadD28 (Mycobacterium tuberculosis, UniProt P9WQ59); assay: Fluorescence polarization aasay to screen for inhibitors that compete for the binding of FadD28 to a bisubstrate Measured in Biochemical System Using Plate Reader - 2147-01_Inhibitor_Dose_CherryPick_Activity.; format: functional, Mycobacterium tuberculosis H37Rv
T1 sequence (P9WQ59 whole entry): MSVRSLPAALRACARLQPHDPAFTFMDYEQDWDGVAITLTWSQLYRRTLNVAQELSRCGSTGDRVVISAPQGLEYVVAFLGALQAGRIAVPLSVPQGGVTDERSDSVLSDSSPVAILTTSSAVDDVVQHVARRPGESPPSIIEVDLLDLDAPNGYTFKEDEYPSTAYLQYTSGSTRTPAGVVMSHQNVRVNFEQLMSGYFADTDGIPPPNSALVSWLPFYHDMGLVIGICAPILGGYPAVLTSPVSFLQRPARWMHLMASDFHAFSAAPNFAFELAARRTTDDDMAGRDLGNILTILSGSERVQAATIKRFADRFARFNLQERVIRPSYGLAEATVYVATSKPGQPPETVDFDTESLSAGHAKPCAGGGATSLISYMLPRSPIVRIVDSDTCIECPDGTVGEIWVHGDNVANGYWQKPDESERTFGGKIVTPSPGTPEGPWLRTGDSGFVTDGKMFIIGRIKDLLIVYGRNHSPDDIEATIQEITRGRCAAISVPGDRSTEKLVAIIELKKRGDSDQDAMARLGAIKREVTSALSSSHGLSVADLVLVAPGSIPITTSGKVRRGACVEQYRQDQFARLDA

[2] = molecular target: T2, Heat shock factor protein 1 (Mus musculus, UniProt P38532); assay: decrease of HSF1-responsive luciferase luminescence – cell-based, NIH3T3, dose retest, confirmation (AID 2382); format: functional;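 further: NIH3T3 fibroblasts with HSF1-driven luciferase reporter stressed by proteasome inhibitor MG132; luminescence from HSF1-driven luciferase expression after 8 hours of MG132 stress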
T2 sequence (P38532 whole entry): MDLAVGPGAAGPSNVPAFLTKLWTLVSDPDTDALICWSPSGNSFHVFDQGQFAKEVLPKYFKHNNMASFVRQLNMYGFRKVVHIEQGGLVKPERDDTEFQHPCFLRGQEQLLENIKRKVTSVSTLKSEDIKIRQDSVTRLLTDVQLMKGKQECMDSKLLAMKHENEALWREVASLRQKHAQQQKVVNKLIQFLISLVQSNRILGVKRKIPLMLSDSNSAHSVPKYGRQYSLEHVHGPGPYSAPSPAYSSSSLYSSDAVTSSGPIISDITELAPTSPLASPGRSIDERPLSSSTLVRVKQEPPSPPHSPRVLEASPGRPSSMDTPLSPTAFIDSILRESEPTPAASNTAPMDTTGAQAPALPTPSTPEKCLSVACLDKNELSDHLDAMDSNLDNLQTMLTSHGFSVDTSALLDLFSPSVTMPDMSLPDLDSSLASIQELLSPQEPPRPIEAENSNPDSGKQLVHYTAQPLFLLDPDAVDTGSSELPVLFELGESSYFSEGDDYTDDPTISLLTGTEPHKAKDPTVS

[3] = molecular target: T3, Histone-lysine N-methyltransferase NSD2 (Homo sapiens, UniProt O96028); format: biochemical
T3 sequence (O96028 whole entry): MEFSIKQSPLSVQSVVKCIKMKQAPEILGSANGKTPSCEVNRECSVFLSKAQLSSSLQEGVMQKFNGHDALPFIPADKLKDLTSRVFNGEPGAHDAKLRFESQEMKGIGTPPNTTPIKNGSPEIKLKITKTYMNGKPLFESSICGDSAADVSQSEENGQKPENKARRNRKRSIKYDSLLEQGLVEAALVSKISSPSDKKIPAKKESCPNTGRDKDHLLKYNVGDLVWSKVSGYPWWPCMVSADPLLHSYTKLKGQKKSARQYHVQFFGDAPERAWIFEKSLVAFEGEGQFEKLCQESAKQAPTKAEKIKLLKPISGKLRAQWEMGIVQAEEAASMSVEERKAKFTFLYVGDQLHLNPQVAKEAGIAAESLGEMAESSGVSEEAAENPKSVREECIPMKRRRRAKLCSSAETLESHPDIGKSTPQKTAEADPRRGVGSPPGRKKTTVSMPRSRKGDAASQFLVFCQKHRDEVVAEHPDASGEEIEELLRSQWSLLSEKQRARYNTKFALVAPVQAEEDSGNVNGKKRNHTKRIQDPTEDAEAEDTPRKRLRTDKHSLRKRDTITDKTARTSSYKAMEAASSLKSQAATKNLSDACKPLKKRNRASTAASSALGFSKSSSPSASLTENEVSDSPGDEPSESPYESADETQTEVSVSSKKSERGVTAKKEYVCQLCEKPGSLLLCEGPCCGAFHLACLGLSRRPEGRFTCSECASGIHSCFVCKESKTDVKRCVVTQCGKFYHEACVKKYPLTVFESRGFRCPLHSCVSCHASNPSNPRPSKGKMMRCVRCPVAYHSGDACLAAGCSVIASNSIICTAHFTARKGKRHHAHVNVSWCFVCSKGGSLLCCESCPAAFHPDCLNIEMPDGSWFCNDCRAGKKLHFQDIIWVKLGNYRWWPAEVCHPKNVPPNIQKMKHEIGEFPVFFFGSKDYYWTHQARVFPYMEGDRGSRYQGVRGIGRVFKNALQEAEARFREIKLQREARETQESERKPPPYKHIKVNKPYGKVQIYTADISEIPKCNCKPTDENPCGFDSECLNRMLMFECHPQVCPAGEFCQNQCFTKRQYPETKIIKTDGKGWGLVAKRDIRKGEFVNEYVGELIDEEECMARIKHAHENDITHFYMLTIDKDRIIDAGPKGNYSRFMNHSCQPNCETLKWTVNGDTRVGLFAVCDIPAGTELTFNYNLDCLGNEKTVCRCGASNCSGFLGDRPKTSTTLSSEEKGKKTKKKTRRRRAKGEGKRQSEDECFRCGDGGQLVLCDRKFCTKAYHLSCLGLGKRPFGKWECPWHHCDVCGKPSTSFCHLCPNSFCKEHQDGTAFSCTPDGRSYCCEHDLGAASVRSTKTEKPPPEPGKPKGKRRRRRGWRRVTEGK

[4] = molecular target: Heat shock protein HSP 90-alpha (Homo sapiens, UniProt P07900); format: functional, organism-based
Streptococcus = assay: GAS UMAA2166 growth inhibition – luminescence, BacTiterGlo, counter-screen for streptokinase expression inhibitor project, dose response (AID 1915); format: functional, organism-based;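 further: potency for reduction of bacterial viability or growth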
Nonstructural protein 1 = Nonstructural protein 1 (Influenza A virus, UniProt Q194T2); format: functional, Influenza A virus (A/California/07/2009(H1N1))
cells [5] = format: functional, cell-based
[6] = tested on: Streptococcus sp. 'group A'; assay: Streptococcus pyogenes SK(-)GAS viability under kanamycin – luminescence, BacTiterGlo, confirmation, counter-screen for streptokinase expression inhibitor project, dose response (AID 1900); format: functional, organism-based
Vero = assay: cells; format: functional; details: Chlorocebus sabaeus
[7] = NIH-3T3 fibroblast cytotoxicity, dose response, cytotoxicity control, cell-based, fluorescence, Alamar Blue, secondary assay (AID 2327); format: functional;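 further: NIH-3T3 mouse fibroblasts cultured with fluconazole at 8 µg/mL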
Caspase-6 = molecular target: T4, Caspase-6 (Homo sapiens, UniProt P55212); assay: inhibition of CASP6 peptide cleavage – biochemical, VEID-R110 fluorescence, cherry-pick, dose response (AID 720632)
T4 sequence (P55212 whole entry): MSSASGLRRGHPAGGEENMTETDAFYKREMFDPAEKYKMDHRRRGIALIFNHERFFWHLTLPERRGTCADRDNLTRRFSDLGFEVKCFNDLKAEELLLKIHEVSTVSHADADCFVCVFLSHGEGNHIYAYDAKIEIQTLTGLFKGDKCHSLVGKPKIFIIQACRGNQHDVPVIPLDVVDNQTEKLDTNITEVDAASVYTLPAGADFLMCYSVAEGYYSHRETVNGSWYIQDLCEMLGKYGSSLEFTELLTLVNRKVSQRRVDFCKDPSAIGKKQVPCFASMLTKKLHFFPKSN

[8] = fluconazole-exposed Candida albicans growth modulators – fluorescence, retest, confirmation (AID 2467); format: functional, cell-based
cells [9] = format: functional, cell-based; remark: listed apart in the source
[10] = off-target signal loss in HeLa-CEM21 co-culture – HeLa F-luc CTL cells, cherry-picked, counter-screen for HIV-1 Env fusion inhibitor project, dose response (AID 652040); format: functional, cell-based;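 further: potency for signal decrease marking cytotoxic or nonspecific inhibition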
[11] = HIV-1 AD8 envelope cell-cell fusion blockers – cherry-pick, dose response (AID 652062); format: functional, cell-based;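 further: luciferase signal from cell-cell fusion driven by HIV-1 clade B AD8 Env; potency is for inhibitors of fusion seen as a drop in luminescence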
[12] = blockers of HIV-1 envelope-mediated cell-cell fusion – cherry-pick, dose response (AID 652057); format: functional, cell-based
[13] = blockers of HIV-1 ZM109 envelope-driven cell-cell fusion – HeLa effector, CEM target cells, luciferase, cherry-pick, dose response (AID 652058); format: functional, cell-based;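 further: luciferase signal from HIV-1 Env mediated cell-cell fusion of effector and target cells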
[14] = viability loss in CEM21 cells – cell-based, CellTiter-Glo luminescence, cherry-picked, cytotoxicity control for viral fusion inhibitor project, dose response (AID 652042); format: functional;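 further: potency for signal decrease meaning cytotoxicity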
[15] = molecular target: T5, Rac GTPase-activating protein 1 (Homo sapiens, UniProt Q9H0H5); assay: blockers of MgcRacGAP-driven Rac1 GTP hydrolysis – biochemical, ADP Hunter fluorescence, primary and confirmatory, confirmation (AID 624330); format: functional
T5 sequence (Q9H0H5 whole entry): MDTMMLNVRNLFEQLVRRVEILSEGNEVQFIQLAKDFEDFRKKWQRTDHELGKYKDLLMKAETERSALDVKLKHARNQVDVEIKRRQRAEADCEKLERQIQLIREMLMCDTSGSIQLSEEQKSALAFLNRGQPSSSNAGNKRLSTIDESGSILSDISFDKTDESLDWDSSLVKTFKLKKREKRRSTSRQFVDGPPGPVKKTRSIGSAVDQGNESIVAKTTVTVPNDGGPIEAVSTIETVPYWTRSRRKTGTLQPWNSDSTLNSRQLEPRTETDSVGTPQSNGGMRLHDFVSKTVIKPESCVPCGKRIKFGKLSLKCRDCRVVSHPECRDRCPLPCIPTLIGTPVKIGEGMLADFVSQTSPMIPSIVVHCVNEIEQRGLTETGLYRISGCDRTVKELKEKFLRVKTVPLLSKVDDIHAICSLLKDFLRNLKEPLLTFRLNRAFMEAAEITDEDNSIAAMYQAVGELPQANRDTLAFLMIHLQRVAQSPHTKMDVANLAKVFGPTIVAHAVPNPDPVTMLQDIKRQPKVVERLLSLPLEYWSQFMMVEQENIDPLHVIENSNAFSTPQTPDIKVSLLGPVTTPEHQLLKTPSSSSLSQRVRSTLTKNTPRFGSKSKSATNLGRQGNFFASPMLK

[16] = T. cruzi growth inhibition in host cells, dose response, cell-based, plate reader, dry powder, set 2 (AID 652275); format: functional
P388/ADR = assay: cells; format: functional; details: Mus musculus
SN12K1 = assay: cells; format: functional; details: Homo sapiens
P388 = assay: cells; format: functional; details: Mus musculus
Fatty acid synthase [17] = molecular target: T6, Fatty acid synthase (Homo sapiens, UniProt P49327); assay: inhibition of human FAS-TE enzyme activity – biochemical, kinetic fluorescence intensity, dose response (AID 624326); format: functional;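 further: rate of fluorescence rise from hydrolysis of a fluorogenic O-methyl fluorescein ester substrate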
Fatty acid synthase [18] = molecular target: T6, Fatty acid synthase; assay: inhibition of human FAS-TE enzyme activity – biochemical, endpoint fluorescence intensity, uHTS hits, dose response (AID 624327); format: functional;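 further: fluorescence from hydrolysis of an O-methyl fluorescein acyl ester substrate by the enzyme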

Sequence of Beta-galactosidase (Q8VNN2 whole entry): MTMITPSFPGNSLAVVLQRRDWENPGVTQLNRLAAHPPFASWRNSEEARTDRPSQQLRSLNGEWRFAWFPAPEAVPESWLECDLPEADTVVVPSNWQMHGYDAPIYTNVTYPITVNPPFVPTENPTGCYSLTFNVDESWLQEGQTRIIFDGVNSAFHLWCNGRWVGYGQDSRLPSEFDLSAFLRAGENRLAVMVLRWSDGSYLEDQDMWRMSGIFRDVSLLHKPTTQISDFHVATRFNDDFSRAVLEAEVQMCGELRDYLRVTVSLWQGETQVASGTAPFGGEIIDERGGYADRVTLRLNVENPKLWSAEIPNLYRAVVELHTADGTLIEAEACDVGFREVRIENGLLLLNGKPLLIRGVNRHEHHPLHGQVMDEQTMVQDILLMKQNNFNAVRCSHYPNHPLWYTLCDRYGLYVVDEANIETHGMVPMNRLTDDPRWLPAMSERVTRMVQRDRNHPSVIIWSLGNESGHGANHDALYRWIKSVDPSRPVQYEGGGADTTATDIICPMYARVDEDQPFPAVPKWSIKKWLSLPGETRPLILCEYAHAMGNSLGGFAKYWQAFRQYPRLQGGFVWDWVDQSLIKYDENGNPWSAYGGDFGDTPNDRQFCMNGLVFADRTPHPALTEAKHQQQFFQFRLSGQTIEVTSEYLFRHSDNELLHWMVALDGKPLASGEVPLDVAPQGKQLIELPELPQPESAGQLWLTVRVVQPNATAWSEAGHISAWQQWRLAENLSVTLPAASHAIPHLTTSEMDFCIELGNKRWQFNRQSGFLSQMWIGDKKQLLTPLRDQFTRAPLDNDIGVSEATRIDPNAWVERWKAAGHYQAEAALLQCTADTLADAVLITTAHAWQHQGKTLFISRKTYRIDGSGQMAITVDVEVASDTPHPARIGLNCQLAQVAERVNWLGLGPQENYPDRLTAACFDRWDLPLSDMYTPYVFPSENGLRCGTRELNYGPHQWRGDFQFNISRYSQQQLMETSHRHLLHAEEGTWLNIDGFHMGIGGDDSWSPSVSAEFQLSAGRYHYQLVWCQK
T6 sequence (P49327 whole entry): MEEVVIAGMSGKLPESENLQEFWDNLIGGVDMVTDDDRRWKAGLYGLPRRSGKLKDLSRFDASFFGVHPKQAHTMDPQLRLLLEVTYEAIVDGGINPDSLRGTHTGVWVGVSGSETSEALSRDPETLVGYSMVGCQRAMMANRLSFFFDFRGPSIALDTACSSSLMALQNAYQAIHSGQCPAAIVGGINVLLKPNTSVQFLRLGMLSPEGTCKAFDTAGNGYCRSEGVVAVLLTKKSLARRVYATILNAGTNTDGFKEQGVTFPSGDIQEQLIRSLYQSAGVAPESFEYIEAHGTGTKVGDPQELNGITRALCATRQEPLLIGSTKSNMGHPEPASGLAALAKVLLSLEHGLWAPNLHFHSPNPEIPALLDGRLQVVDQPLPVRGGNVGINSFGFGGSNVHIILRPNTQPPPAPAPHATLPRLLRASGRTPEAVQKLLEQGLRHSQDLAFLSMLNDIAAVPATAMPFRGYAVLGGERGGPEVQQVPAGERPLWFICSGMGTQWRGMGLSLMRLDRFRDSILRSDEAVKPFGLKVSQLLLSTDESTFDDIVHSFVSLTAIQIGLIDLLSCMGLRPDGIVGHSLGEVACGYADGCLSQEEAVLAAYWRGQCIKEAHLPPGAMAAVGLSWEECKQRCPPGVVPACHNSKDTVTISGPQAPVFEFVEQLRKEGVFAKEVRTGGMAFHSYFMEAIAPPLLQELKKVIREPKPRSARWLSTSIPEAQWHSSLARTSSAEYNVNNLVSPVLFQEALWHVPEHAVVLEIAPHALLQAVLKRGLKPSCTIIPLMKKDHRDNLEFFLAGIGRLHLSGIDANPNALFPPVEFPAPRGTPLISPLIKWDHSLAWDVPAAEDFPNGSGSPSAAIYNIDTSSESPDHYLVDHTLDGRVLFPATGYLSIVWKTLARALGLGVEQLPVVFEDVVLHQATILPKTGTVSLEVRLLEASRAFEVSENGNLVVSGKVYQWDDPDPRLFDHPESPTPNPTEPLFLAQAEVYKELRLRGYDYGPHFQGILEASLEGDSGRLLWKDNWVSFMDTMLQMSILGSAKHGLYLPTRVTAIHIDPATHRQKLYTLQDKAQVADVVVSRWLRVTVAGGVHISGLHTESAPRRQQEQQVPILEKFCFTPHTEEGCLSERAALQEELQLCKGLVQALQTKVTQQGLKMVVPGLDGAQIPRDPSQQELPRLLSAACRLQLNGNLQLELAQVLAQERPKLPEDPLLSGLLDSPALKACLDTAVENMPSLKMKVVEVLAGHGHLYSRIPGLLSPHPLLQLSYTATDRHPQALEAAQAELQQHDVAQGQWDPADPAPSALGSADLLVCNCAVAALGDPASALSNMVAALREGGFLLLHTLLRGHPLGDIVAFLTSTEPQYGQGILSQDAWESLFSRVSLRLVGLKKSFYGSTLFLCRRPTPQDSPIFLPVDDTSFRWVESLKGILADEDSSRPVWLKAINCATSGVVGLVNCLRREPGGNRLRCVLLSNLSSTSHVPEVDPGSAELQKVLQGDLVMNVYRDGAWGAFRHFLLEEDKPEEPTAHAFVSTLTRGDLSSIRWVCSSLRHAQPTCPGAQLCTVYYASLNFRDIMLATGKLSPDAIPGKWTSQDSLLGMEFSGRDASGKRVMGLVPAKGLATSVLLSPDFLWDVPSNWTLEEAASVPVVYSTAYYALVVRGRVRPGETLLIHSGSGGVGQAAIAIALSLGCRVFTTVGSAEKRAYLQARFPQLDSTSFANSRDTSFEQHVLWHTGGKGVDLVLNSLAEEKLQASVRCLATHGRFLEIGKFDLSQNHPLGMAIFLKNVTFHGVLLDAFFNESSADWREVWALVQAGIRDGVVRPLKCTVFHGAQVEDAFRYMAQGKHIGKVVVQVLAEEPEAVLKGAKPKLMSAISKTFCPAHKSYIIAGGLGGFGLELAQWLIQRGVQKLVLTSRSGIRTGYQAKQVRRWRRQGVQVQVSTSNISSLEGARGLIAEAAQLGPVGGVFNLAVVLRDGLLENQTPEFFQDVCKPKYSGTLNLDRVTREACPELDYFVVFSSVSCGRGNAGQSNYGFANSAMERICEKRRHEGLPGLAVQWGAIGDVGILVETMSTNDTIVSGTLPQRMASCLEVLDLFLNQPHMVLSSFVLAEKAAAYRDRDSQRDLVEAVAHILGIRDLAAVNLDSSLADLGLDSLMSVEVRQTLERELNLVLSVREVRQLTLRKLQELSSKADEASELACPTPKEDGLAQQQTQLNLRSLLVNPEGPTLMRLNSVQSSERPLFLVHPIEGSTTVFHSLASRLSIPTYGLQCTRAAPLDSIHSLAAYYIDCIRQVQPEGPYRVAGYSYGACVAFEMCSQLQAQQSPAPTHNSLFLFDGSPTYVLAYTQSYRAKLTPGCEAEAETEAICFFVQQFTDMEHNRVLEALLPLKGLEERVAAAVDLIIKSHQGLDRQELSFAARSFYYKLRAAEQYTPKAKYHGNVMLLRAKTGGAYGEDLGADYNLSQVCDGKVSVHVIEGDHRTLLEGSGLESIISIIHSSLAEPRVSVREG
Sequence of Nonstructural protein 1 (Q194T2 whole entry): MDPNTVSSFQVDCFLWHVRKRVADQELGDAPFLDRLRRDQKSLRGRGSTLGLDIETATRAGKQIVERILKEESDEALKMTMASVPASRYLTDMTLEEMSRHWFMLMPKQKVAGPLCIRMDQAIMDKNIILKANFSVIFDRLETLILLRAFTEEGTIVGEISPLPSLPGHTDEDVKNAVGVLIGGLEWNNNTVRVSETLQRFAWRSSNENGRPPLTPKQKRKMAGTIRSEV

## Cc1ccc(NN=C(S)Nc2ccc(C(C)C)cc2)c(C)c1
Beta-galactosidase
  IC50: 66.1 µM (inactive)

## O=C(CN1C(=O)NC2(CCOc3ccccc32)C1=O)c1ccc(Br)cc1 (stereo not given)
[1]
  AC50: 98.9 µM (active)

## Cc1ccc2oc(=O)c3cnn(CC(=O)N(Cc4ccco4)C4CCCCC4)c3c2c1
Beta-galactosidase
  IC50: > 80 µM (inactive)

## COc1ccccc1N=Nc1ccc(O)c2ncccc12
[2]
  EC50: 2.29 µM (active)
[3]
  AC50: 11.8 µM (active)
[4]
  AC50: 3.68 µM (active)
Streptococcus
  EC50: 10.3 µM (active)
Nonstructural protein 1
  IC50: 12.4 µM (active)
Cells [5]
  EC50: 38.7 µM (active)
[6]
  EC50: 1.17 µM (active)
Vero
  CC50: 12.2 µM (active)
[7]
  EC50: > 160 µM (inactive)
Caspase-6
  AC50: 34.5 µM (active)
[8]
  EC50: 1.28 µM (active)
Cells [9]
  EC50: 102 µM (active)

## O=C(Nc1cccc(F)c1)c1cc(S(=O)(=O)N2CCC(C(=O)O)CC2)ccc1F
[10]
  AC50: 28.9 µM (active)

## O=C(CN(Cc1ccccc1F)S(=O)(=O)c1ccc(Cl)cc1)NCCC1=CCCCC1
[11]
  AC50: 25.6 µM (active)
[12]
  AC50: 4.11 µM (active)
[13]
  AC50: 4.59 µM (active)
[10]
  AC50: 6.77 µM (active)

## Cc1onc(-c2ccccc2)c1C(=O)NC(=S)NNC(=O)c1ccc(O)cc1
[14]
  AC50: 67.3 µM (active)
[11]
  AC50: 10.5 µM (active)
Streptococcus
  EC50: 9.46 µM (active)
[6]
  EC50: 0.547 µM (active)

## Cc1ccc(OCC(=O)N2CCN(Cc3ccc([N+](=O)[O-])cc3)CC2)cc1
Beta-galactosidase
  IC50: > 80 µM (inactive)
[15]
  IC50: 163 µM (active)

## COc1cc(/C=C2\C(=O)NN(c3ccc(C)cc3)C2=O)cc([N+](=O)[O-])c1O
[1]
  AC50: 86.9 µM (active)

## CCOC(=O)[C@]12CCC=C1N(Cc1ccc3c(c1)OCO3)C(=O)[C@H](CC(=O)NCC13CC4CC(CC(C4)C1)C3)C2
[14]
  AC50: 34 µM (active)
[12]
  AC50: 16.5 µM (active)
[13]
  AC50: 22.7 µM (active)

## C[C@H]1CN([C@@H](C)CO)C(=O)c2cccc(NC(=O)c3ccncc3)c2O[C@@H]1CN(C)Cc1ccc(Cl)cc1
[16]
  AC50: 0.00712 µM (active)

## CC(C)(C)[S+]([O-])N1Cc2cc(C(=O)NCc3ccc4c(c3)OCO4)nc(-c3cccc(C#CCC4CCCC4)c3)c2[C@H]1CCO (stereo not given in full)
[16]
  AC50: 1.01 µM (active)

## CC(C)(C)[S@+]([O-])N1Cc2cc(C(=O)NCc3ccc4c(c3)OCO4)nc(-c3cccc(-c4ccncc4)c3)c2[C@@H]1CCO
[16]
  AC50: 0.152 µM (active)

## COC1C(O)C(C)OC(OC2C(Oc3cccc4c(O)c5c(=O)oc6ccc(C)c7c(=O)oc(c34)c5c67)OC(C)C(O)C2O)C1O (stereo not given)
[3]
  AC50: > 20 µM (inactive)
P388/ADR
  GI50: 7.08 µM (inactive)
SN12K1
  GI50: 0.593 µM (active)
P388
  GI50: 0.598 µM (active)

## CC1=C(O)C(=O)C(c2c(C)cc(C)c(Br)c2C)=C(O)C1=O
Fatty acid synthase [17]
  IC50: 9.46 µM (active)
Fatty acid synthase [18]
  IC50: 10.8 µM (active)
[1]
  AC50: 51.8 µM (active)
